Experimental data published in patent US8044077B2, “Alpha-(N-sulfonamido)acetamide compounds incorporating deuterium as inhibitors of beta amyloid peptide production” (Bristol-Myers Squibb Company, priority 2009, dated 2011).

Test system: H4 APP751 SWE clone 8.20 (H4-8Sw cells), Aβ42 formation
Experiment: Inhibition of Aβ42 formation in cultured cells
Type: cell-based
Settings: H4-8Sw cells (H4 neuroglioma stably expressing Swedish mutant APP751), 19 hours incubation, mean±SD, n=2
Experimental: Compounds were assayed for Aβ42 inhibition in cells using H4 APP751 SWE clone 8.20, developed at Bristol-Myers Squibb, an H4 neuroglioma cell line stably expressing the Swedish mutant of APP751. Cells were maintained in log phase through twice weekly passage at a 1:20 dilution. For IC50 determinations, 30 μL cells (1.5×10^4 cells/well) in DMEM media containing 0.0125% BSA (Sigma A8412) were plated directly into 384-well compound plates (Costar 3709) containing 0.1 μL serially diluted compound in DMSO. Following incubation for 19 hours in 5% CO2 at 37° C., plates were briefly centrifuged (1000 rpm, 5 min). Antibody cocktails were freshly prepared by dilution into 40 mM Tris-HCl (pH 7.4) with 0.2% BSA and added to assay plates. For Aβ42 measurements, antibodies specific for the Aβ42 neoepitope (565, developed at Bristol-Myers Squibb; conjugated to the Wallac reagent (Perkin Elmer)) and the N-terminal sequence of Aβ peptide (26D6, developed at SIBIA/Bristol-Myers Squibb; conjugated to APC (Perkin Elmer)) were mixed and 20 μL of the mixture was added to each well of the incubated cell plate yielding a final concentration of 0.8 ng/well 565 and 75 ng/well 26D6. […] Signal was determined using a Viewlux counter (Perkin Elmer) and IC50 values determined using curve fitting in CurveMaster (Excel Fit based).

- IC50: 120 ± 10 pM
SMILES: [2H]c1nc(-c2ccc(CN([C@H](CCC(F)(F)F)C(N)=O)S(=O)(=O)c3ccc(Cl)cc3)c(F)c2)no1 [Example 1, (2R)-2-[[(4-Chlorophenyl)sulfonyl][[2-fluoro-4-(1,2,4-oxadiazol-5-deutero-3-yl)phenyl]methyl]amino]-5,5,5-trifluoropentanamide]
